According to patent EP1714978A1, “Peptides useful for diagnosis and therapy of tumors” (Deutsches Krebsforschungszentrum Stiftung des öffentlichen …, priority 2005, dated 2006):

Key:
[1] = test system: MCF-7 cells (mamma carcinoma cell line); test: In vitro binding/uptake of ^125I-labelled FROP-1 by MCF-7 cells; settings: ^125I-labelled FROP-1, about 1 x 10^6 cpm per well, 1 hour, RPMI 1640 without FCS and BSA
Experimental: (§1) • (A) Mice: Female 6-week-old BALB/c nu/nu mice were obtained from Charles River WIGA (Sulzfeld, Germany) and housed in VentiRacks. For inoculation of the tumors in nude mice a Matrigel-matrix/cell suspension (5×10^6 cells) was injected subcutaneously into the anterior region of the mouse trunk. Tumors were grown up to a size of approximately 1.0 cm^3. All animals were cared for according to the German animal guidelines. • (B) Peptide synthesis and labeling: The FROP-1-Peptide (EDYELMDLLAYL) was obtained by solid-phase peptide synthesis using Fmoc-chemistry. The radiolabeling was achieved by iodination using the chloramine-T method (33). […] The solution was centrifuged 5 min at 13,000 rpm and the cleared lysate was analyzed by HPLC. • (D) In vitro binding assay: 300,000 cells were seeded into 6-well plates and cultivated for 24 hours. […] Radioactivity was determined with a gamma counter and calculated as percent applied dose per 10^6 cells. […] The organs were removed, weighed and the radioactivity was determined using an automated NaI(Tl) well counter (CobraII, Canberra Packard, Meriden, USA). The percentage of injected dose per gram of tissue was calculated.
(§2) 2 x 10^5 cells of various tumor cell lines were seeded into 6-well plates. […] The radioactivity of lysed cells was determined with a gamma counter. […]

[2] = test system: FRO82-2 cells (follicular thyroid cancer cell line); test: In vitro binding/uptake of ^125I-labelled FROP-1 by FRO82-2 cells; set-up: species or system human; settings: ^125I-labelled FROP-1, about 1 x 10^6 cpm per well, 1 hour, RPMI 1640 without FCS and BSA
Experimental: as §1, §2

[3] = test system: HeLa cells (cervix carcinoma cell line); test: In vitro binding/uptake of ^125I-labelled FROP-1 by HeLa cells; settings: ^125I-labelled FROP-1, about 1 x 10^6 cpm per well, 1 hour, RPMI 1640 without FCS and BSA
Experimental: as §1, §2

[4] = test system: PC-3 (prostate carcinoma cell lines); test: In vitro binding/uptake of ^125I-labelled FROP-1 by PC-3 cells; settings: ^125I-labelled FROP-1, about 1 x 10^6 cpm per well, 1 hour, RPMI 1640 without FCS and BSA
Experimental: as §1, §2

[5] = test system: DU-145 (prostate carcinoma cell lines); test: In vitro binding/uptake of ^125I-labelled FROP-1 by DU-145 cells; settings: ^125I-labelled FROP-1, about 1 x 10^6 cpm per well, 1 hour, RPMI 1640 without FCS and BSA
Experimental: as §1, §2

various tumor cell lines = test: Competition of ^125I-labelled FROP-1 uptake by unlabelled FROP-1, various tumor cell lines; assay type: binding; settings: in the presence of 10^-4 unlabelled FROP-1 as a competitor, 1 hour
Experimental: as §1, §2

FRO82-2 tumor = test: Organ distribution in tumor-bearing nude mice; assay type: in vivo, Balb/c nu/nu mice; settings: summary statement; ^131I-FROP-1 i.v., values only in Figure 6
Experimental: as §1, with “(33). The labeled peptide was purified by HPLC on a LiChrosorb RP-select B 5 µm, 250 ×x 4 mm column (Merck, Darmstadt, Germany) using TRIS/phosphate and methanol as eluents.” for “(33).”, “calculated. […]” for “calculated.”

Substance: FROP-1: novel 12 amino acid peptide from phage display, aa sequence EDYELMDLLAYL
- binding of FROP-1 to MCF-7 cells [1]: efficient binding
- binding of FROP-1 to FRO82-2 cells [2]: efficient binding
- binding of FROP-1 to HeLa cells [3]: efficient binding
- binding of FROP-1 to PC-3 [4]: efficient binding
- binding of FROP-1 to DU-145 [5]: efficient binding
- binding can be competed (various tumor cell lines): 95%
- accumulation in tumors in vivo (FRO82-2 tumor): accumulates in vivo at/in tumors
